Assay results taken from article PMC7731220, “Pharmacophore Modeling and 3D-QSAR Study of Indole and Isatin Derivatives as Antiamyloidogenic Agents Targeting Alzheimer’s Disease” (Molecules, 2020).

Columns and labels:
Aβ40 = Aβ40 (Homo sapiens, UniProt P05067); assay: Inhibition of Aβ40 self-aggregation (thioflavin T fluorescence, 2% HFIP); conditions: read-out: Aβ40 Aggregation Inhibition % at 100 μM
Chain of Aβ40 (P05067 672-711 limits assumed): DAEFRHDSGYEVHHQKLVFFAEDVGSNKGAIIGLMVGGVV
Method: All the newly prepared compounds were tested in a routine in vitro assay of inhibition of Aβ40 self-aggregation [25].
All assays were performed in 96-well plates (Greiner Bio-One, Kremsmünster, Austria) using an Infinite M1000 Pro plate reader (Tecan, Cernusco s.N., Italy). Inhibition data were obtained as mean ± SD (for single concentration points) or mean ± SEM from three independent experiments (for IC50s), using Prism (GraphPad Prism version 5.00 for Windows, GraphPad Software, San Diego, CA, USA).
Assay of aggregation of Aβ40 (EzBiolab, Carmel, IN, USA) was performed as described [25], using 2% of 1,1,1,3,3,3-hexafluoro-2-propanol as aggregation enhancer and spectrofluorimetric detection of thioflavin T fluorescence as the probe of amyloid aggregation.

Structure (SMILES)	inhibition at 100 µM (Aβ40)	melting point
COc1ccc2c(c1)C(=NNC(=O)c1ccccc1)C(=O)N2 [Compound 26, N′-(5-Methoxy-2-oxoindolin-3-ylidene)benzhydrazide]	12 ± 5%	> 250 °C
O=C1C(=Cc2ccc(O)cc2)Nc2ccccc21 [Compound 27, 2-(4-Hydroxybenzylidene)indolin-3-one]	69 ± 1%	> 250 °C
